Results on one molecule are retold here after US9402908B2, “Polymeric delivery systems for active agents” (priority 2008, dated 2016).

The conditions of this data set: same protocol, no polymer.

As for `C[C@@H]1[C@H](O)[C@@H](C)/C=C/C=C/C=C/C=C/C=C/C=C/C=C/[C@H](O[C@@H]2O[C@H](C)[C@@H](O)[C@H](N)[C@@H]2O)C[C@@H]2O[C@](O)(C[C@@H](O)C[C@@H](O)[C@H](O)CC[C@@H](O)C[C@@H](O)CC(=O)O[C@H]1C)C[C@H](O)[C@H]2C(=O)O` [Amphotericin B], the “water solubility of Amphotericin B” value was “approx. 0.4 μg/mL”.
